The values that follow come from US20260028330A1, “HETEROARYL CARBOXAMIDE AND RELATED GPR84 ANTAGONISTS AND USES THEREOF” (LIMINAL BIOSCIENCES LIMITED, priority 2022, published 2026).

The inhibition is the drop in the measured response relative to a control, in per cent. For orientation: IC50 means the concentration that inhibits the measured activity by half. The low end stands for higher potency, the high end for lower potency.

Where only a bound is given, the exact number is not on record here.

The target of this assay is T1, human GPR84 receptor (Homo sapiens, UniProt Q9NQS5).
T1 construct: host or cells: HEK293 cells, transient transfection
Put plainly: Gαi biosensor BRET assay in transfected HEK293 cells (antagonism of GPR84 agonist ZQ-16). The class given is cell-based. As to conditions: 200 nmol/L ZQ-16; for inhibition at 10 µM / inhibition at 2 µM: HEK293, single concentration; for inhibition at 10 µM: code F = 10 μM; for inhibition at 2 µM: code A = 2 μM. From the text: Background—The following assays can be used for determination of GPR84 activation in living HEK293 cells. The Gαi BRET biosensor (Gagnon et al., 2018; Gales et al., 2006. Nat Struct Mol Biol. 13, 778-86; Saulieres et al., 2012. Nat Chem Biol. 8, 622-30) allows to directly monitor GPR84-mediated activation of Gαi. The Gαi biosensor consists of a Rluc8-tagged Gαi2 subunit, a GFP10-tagged Gγ2 subunit, and an untagged Gβ1. Agonist stimulation and GPR84 activation triggers a physical separation between the RLuc8-Gαi donor and the GFP10-Gγ2 acceptor, resulting in a decrease in BRET signal whose amplitude is correlated to ligand efficacy (Gales et al., 2006). Moreover, signaling functions of GPCRs are tightly regulated by endocytosis, the targeting of receptors to endosomes and their sorting to lysosomes or recycling to the plasma membrane. The early endosomes (EEs) trafficking assay (Namkung et al., 2016. Nat Commun. 7, 12178) uses Rluc8-tagged GPR84 and Renilla GFP (rGFP) attached to the FYVE domain from human endofin/zinc finger FYVE domain-containing protein 16, which binds phosphatidylinositol 3-phosphate in EEs. Agonist stimulation of GPR84-Rluc8 leads to trafficking of the receptor to EEs, and ensuing increase of the donor concentration relative to the rGFP-FYVE acceptor anchored in the same cellular compartment, and thus results in an increase in BRET signal.
Plasmids—The cDNA clones for human GPR84 receptor, human Gαi2, Gβ1, and Gγ2 were obtained from the cDNA Resource Center (www.cdna.org). GFP10 (F64L, S147P, S202F and H231L variant of Aequorea victoria Green Fluorescent Protein) gBlocks gene fragments (Integrated DNA Technologies, IA) and linker were inserted in frame at the N-terminus of human Gγ2. Rluc8 (A55T, C124A, S130A, K136R, A143M, M185V, M253L, and S287L variant of the Renilla reniformis luciferase) gBlocks gene fragment was inserted with linkers in frame in between residues 91 and 92 of Gα2 or at the C-terminus of GPR84. The FYVE domain from human endofin (residues Q739 to K806) attached in frame at the C terminus of a humanized Renilla GFP (rGFP), were synthesized as gBlocks gene fragments.
Bioluminescence Resonance Energy Transfer (BRET) Measurement—HEK293 cells were transfected with GPR84-Rluc8 and rGFP-FYVE for the EEs trafficking biosensor or with GPR84, Gαi2-Rluc8, GFP10-Gγ2, and Gβ1 for the Gαi biosensor. The following day, transiently transfected cells were seeded in 96-well white clear bottom microplates coated with poly-D-lysine and left in culture for 24 hours. Cells were washed once with Tyrode's buffer (140 mmol/L NaCl, 1 mmol/L CaCl2, 2.7 mmol/L KCl, 0.49 mmol/L MgCl2, 0.37 mmol/L NaH2PO4, 5.6 mmol/L glucose, 12 mmol/L NaHCO3, and 25 mmol/L HEPES, pH 7.5) before performing assays in Tyrode's buffer. Test compounds were incubated with cells for 5 (Gui) or 15 (EEs) minutes at 37° C. before addition of 200 nmol/L of the GPR84 agonist ZQ-16 (2-(Hexylthio)-6-hydroxy-4(3H)-pyrimidinone) for 5 minutes at room temperature (Gui) or 30 minutes at 37° C. (EEs). The Rluc8 substrate coelenterazine 400A (Prolume, Lakeside, AZ) was added at a final concentration of 5 μmol/L and BRET readings were collected using an Infinite M1000 microplate reader (Tecan, Morrisville, NC). BRET^2 readings between Rluc8 and GFP10 or rGFP were collected by sequential integration of the signals detected in the 370 to 450 nm (Rluc8) and 510 to 540 nm (GFP10, rGFP) windows. The BRET signal was calculated as the ratio of light emitted by acceptor (GFP10, rGFP) over the light emitted by donor (Rluc8). The values were corrected to net BRET by subtracting the background BRET signal obtained in cells transfected with Rluc8 constructs alone. Ligand-promoted net BRET values were calculated by subtracting vehicle-induced net BRET from ligand-induced net BRET.

T1 sequence (Q9NQS5 whole entry): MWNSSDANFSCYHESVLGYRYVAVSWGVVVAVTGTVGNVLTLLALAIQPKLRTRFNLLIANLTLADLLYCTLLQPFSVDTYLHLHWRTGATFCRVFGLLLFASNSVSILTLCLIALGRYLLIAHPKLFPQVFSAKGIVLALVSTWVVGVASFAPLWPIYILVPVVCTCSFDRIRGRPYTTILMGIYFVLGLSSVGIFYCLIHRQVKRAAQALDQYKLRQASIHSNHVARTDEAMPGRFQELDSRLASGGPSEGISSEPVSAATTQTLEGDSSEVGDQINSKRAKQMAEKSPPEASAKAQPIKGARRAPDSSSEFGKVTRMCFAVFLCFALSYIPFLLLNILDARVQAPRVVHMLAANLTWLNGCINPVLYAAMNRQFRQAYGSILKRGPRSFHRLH

For `Cc1ccc(C#CC2CC2)cc1CN(C)c1cn(CC2OCC3(CC3)CO2)nn1` [Compound I-10, 1-((5,7-dioxaspiro[2.5]octan-6-yl)methyl)-N-(5-(cyclopropylethynyl)-2-methylbenzyl)-N-methyl-1H-1,2,3-triazol-4-amine], the inhibition at 10 µM fell in the range of 25 to 50%.

Regarding `Cc1cc(C#CC2CC2)c2c(c1)CCC2N(C)c1cn(CC2OCC3(CC3)CO2)nn1` (stereo not drawn) [Compound I-81], the inhibition at 2 µM was at most 25%.

For the compound `Cc1ccc(C#CC2CC2)cc1Nc1cn(CC(=O)N(C)C)nn1` [Compound I-6, 2-(4-((5-(cyclopropylethynyl)-2-methylphenyl)amino)-1H-1,2,3-triazol-1-yl)-N,N-dimethylacetamide], the inhibition at 2 µM was at most 25%.

On to `Cc1ccc(C#CC2CC2)c2c1N(C(=O)c1cn(CC3OCC4(CC4)CO3)nn1)CC2` [Compound I-4, (1-((5,7-dioxaspiro[2.5]octan-6-yl)methyl)-1H-1,2,3-triazol-4-yl)(4-(cyclopropylethynyl)-7-methylindolin-1-yl)methanone], for which the inhibition at 10 µM is at most 25%.

In turn, `CN(C(=O)c1cn(CC2OCC3(CC3)CO2)nn1)c1c(F)cc(C#CC2CC2)cc1F` [Compound I-43] had an IC50 of at most 300 nM and an inhibition at 2 µM above 75%.

`Cc1ccc(C#CC2CC2)nc1N(C)C(=O)c1cn(CC2OCC3(CC3)CO2)nn1` [Compound I-36]: the inhibition at 10 µM is 25 to 50%.

`Cc1ccc(C#CC2CC2)cc1N(C)C(=O)c1cn(CC(=O)N(C)C)nn1` [Compound I-13, N-(5-(cyclopropylethynyl)-2-methylphenyl)-1-(2-(dimethylamino)-2-oxoethyl)-N-methyl-1H-1,2,3-triazole-4-carboxamide]: the inhibition at 10 µM is 25 to 50%.

As for `O=C(Nc1cccc(C#CC2CC2)c1)c1cn(CC2OCC3(CC3)CO2)nn1` [Compound I-97], the inhibition at 10 µM is at most 25%.

`O=C(Nc1cc(C#CC2CC2)ccc1C1CC1)c1cn(CC2OCC3(CC3)CO2)nn1` [Compound I-45] registered an inhibition at 10 µM of at most 25%.

With `CN(C(=O)c1cn(CC2OCC3(CC3)CO2)cn1)c1ccc(C#CC2CC2)cc1F` [Compound I-59], the concentration for half-maximal inhibition (IC50) is at most 300 nM and the inhibition at 2 µM is above 75%.

As for `Cc1cc(C#CC2CC2)ccc1CN(C)c1cn(CC2OCC3(CC3)CO2)nn1` [Compound I-22], the inhibition at 10 µM was above 75%.

`CCc1ccc(C#CC2CC2)cc1N(C)C(=O)c1cn(CC2OCC3(CC3)CO2)nn1` [Compound I-104]: the IC50 is 300 to 1000 nM and the inhibition at 10 µM was above 75%.

`Cc1ccc(C#CC2CC2)cc1/N=C(\OC(C)C)c1cn(CC2OCC3(CC3)CO2)nn1` [Compound I-87] returned an inhibition at 10 µM above 75%.

Take `CN(C(=O)c1cn(CC2OCC3(CC3)CO2)nn1)c1ccc(C#CC2CC2)cc1Cl` [Compound I-94]: the IC50 is at most 300 nM and the inhibition at 2 µM was above 75%.

The compound `O=C(c1cn(CC2OCC3(CC3)CO2)nn1)N(c1ccc(C#CC2CC2)cc1F)C1CC1` [Compound I-91] displayed a 50% inhibitory concentration (IC50) of at most 300 nM and an inhibition at 2 µM above 75%.

`CN(c1cn(CC2OCC3(CC3)CO2)nn1)c1cc(C#CC2CC2)ccc1Cl` [Compound I-8, 1-((5,7-dioxaspiro[2.5]octan-6-yl)methyl)-N-(2-chloro-5-(cyclopropylethynyl)phenyl)-N-methyl-1H-1,2,3-triazol-4-amine] gave an inhibition at 10 µM above 75%.

On to `Cc1ccc(C#CC2CC2)cc1NC(=O)c1cn(CC2OCC3(CC3)CO2)nn1` [Compound I-14], for which the inhibition at 10 µM is at most 25%.

Take `CCc1ccc(C#CC2CC2)cc1NC(=O)c1cn(CC2OCC3(CC3)CO2)nn1` [Compound I-103]: the inhibition at 10 µM was at most 25%.

With `Cc1ccc(C#CC2CC2)cc1C(=O)N(C)c1cn(CC2OCC3(CC3)CO2)nn1` [Compound I-16], the inhibition at 10 µM is at most 25%.

On to `Cc1cc(C#CC2CC2)ccc1C(=O)N(C)c1cn(CC2OCC3(CC3)CO2)nn1` [Compound I-19], for which the inhibition at 10 µM lay in the range of 50 to 75%.

As for `Cc1cc(C#CC2CC2)cnc1CN(C)c1cn(CC2OCC3(CC3)CO2)nn1` [Compound I-5, 1-((5,7-dioxaspiro[2.5]octan-6-yl)methyl)-N-((5-(cyclopropylethynyl)-3-methylpyridin-2-yl)methyl)-N-methyl-1H-1,2,3-triazol-4-amine], the 50% inhibitory concentration (IC50) was in the range of 300 to 1000 nM and the inhibition at 10 µM is above 75%.

Take `Cc1cc(C#CC2CC2)ccc1N(C)C1(c2cn(CC3OCC4(CC4)CO3)nn2)COC1` [Compound I-95]: the inhibition at 10 µM was above 75%.

Consider `CN(C(=O)c1cn(CC2OCC3(CC3)CO2)nn1)c1cc(C#CC2CC2)ccc1C1CC1` [Compound I-47], for which the 50% inhibitory concentration (IC50) is 300 to 1000 nM and the inhibition at 10 µM is above 75%.

In turn, `Cc1ccc(C#CC2CC2)cc1N(C)Cc1cn(CC2OCC3(CC3)CO2)nn1` [Compound I-12, N-((1-((5,7-dioxaspiro[2.5]octan-6-yl)methyl)-1H-1,2,3-triazol-4-yl)methyl)-5-(cyclopropylethynyl)-N,2-dimethylaniline] returned an inhibition at 10 µM of 25 to 50%.

Compound `O=C(c1cn(CC2OCC3(CC3)CO2)nn1)N(c1ccc(C#CC2CC2)cc1Br)C1CC1` [Compound I-93] came in with an IC50 of at most 300 nM and an inhibition at 2 µM above 75%.

`Cc1cc(C#CC2CC2)ccc1NC(=O)c1cn(CC2OCC3(CC3)CO2)nn1` [Compound I-18]: the inhibition at 10 µM is at most 25%.

Consider `Cc1c(N(C)C(=O)c2ccc(C#CC3CC3)cc2)nnn1CC1OCC2(CC2)CO1` [Compound I-61], for which the inhibition at 10 µM is 50 to 75%.

`Cc1ccc(C#CC2CC2)cc1N(C)C(=O)c1ccc(=O)n(CC(=O)N(C)C)c1C` [Compound I-3, N-(5-(cyclopropylethynyl)-2-methylphenyl)-1-(2-(dimethylamino)-2-oxoethyl)-N,2-dimethyl-6-oxo-1,6-dihydropyridine-3-carboxamide] came in with an inhibition at 10 µM of at most 25%.

For `Cc1cc(C#CC2CC2)ccc1OC(=O)c1cn(CC2OCC3(CC3)CO2)nn1` [Compound I-46], the inhibition at 10 µM is 25 to 50%.

Consider `Cc1ccc(C#CC2CC2)cc1N(C)C(=O)c1cn(CCC(=O)N(C)C)nn1` [Compound I-24], for which the inhibition at 10 µM is at most 25%.

`CN(C(=O)c1cn(CC2OCC3(CC3)CO2)nn1)c1cc(C#CC2CC2)ccc1O` [Compound I-49] came in with an inhibition at 10 µM of 25 to 50%.

With `Cc1ccc(C#CC2CC2)cc1N(C)S(=O)(=O)c1cn(CC2OCC3(CC3)CO2)nn1` [Compound I-55], the inhibition at 10 µM was above 75%.

`COc1cc(C#CC2CC2)cc(N(C)C(=O)c2cn(CC3OCC4(CC4)CO3)nn2)c1` [Compound I-99] returned an inhibition at 10 µM of 25 to 50%.

`COc1cc(C#CC2CC2)cc(NC(=O)c2cn(CC3OCC4(CC4)CO3)nn2)c1` [Compound I-98]: the inhibition at 10 µM is at most 25%.

Take `Cc1cc(C#CC2CC2)ccc1C(=O)Nc1cn(CC2OCC3(CC3)CO2)nn1` [Compound I-20]: the inhibition at 10 µM was at most 25%.

For `Cc1ccc(C#CC2CC2)cc1NCc1cn(CC2OCC3(CC3)CO2)nn1` [Compound I-11, N-((1-((5,7-dioxaspiro[2.5]octan-6-yl)methyl)-1H-1,2,3-triazol-4-yl)methyl)-5-(cyclopropylethynyl)-2-methylaniline], the inhibition at 2 µM was at most 25%.

Turning to `Cc1ccccc1NC(=O)c1cn(CC2OCC3(CC3)CO2)nn1` [Compound I-30], the inhibition at 10 µM is at most 25%.
